According to PMC3919815, “Anti-Tumor Effects of Novel 5-O-Acyl Plumbagins Based on the Inhibition of Mammalian DNA Replicative Polymerase Activity” (PLoS ONE, 2014):

Columns and labels:
pol ε = tested on: pol ε; set-up: method as in PMID 10942777; conditions: cited from earlier work
pol δ = tested on: pol δ; set-up: method as in PMID 10942777; conditions: cited from earlier work
pol α = tested on: pol α; set-up: method as in PMID 10942777; conditions: cited from earlier work
Human pol λ = molecular target: T1, Human pol λ (Homo sapiens, UniProt Q9UGP5); experiment: DNA polymerase activity inhibition; type: biochemical; conditions: 10 µM compound; Fig. 4
T1 construct: His tag; made in house
T1 sequence (Q9UGP5 1-575): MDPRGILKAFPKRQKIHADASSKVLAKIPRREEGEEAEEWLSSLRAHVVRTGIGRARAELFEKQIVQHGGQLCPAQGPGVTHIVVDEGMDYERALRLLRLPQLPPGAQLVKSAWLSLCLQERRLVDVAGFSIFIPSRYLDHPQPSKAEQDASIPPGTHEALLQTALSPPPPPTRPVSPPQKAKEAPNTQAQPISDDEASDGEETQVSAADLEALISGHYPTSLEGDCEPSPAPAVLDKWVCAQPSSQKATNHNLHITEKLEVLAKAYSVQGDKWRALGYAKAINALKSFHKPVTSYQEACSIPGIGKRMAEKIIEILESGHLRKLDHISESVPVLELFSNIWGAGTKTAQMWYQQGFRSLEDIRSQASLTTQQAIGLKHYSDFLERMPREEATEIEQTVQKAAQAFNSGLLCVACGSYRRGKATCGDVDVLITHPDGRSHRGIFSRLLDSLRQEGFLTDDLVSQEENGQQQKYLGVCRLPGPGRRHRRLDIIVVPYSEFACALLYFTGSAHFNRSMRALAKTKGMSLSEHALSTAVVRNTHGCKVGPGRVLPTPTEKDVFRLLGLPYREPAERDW
From the text: (§1) Pol α was purified from calf thymus by immunoaffinity column chromatography as described by Tamai et al.. Recombinant rat pol β was purified from Escherichia coli JMpβ5 as described by Date et al.. The human pol γ catalytic gene was cloned into pFastBac. Histidine-tagged enzyme was expressed using the BACTO-BAC HT Baculovirus Expression System according to the manufacturer's instructions (Life Technologies, Frederick, MD, USA) and purified using ProBound resin (Invitrogen Japan, Tokyo Japan). Human pols δ and ε were purified by nuclear fractionation of human peripheral blood cancer cells (Molt-4) using the second subunit of pol δ and ε-conjugated affinity column chromatography, respectively. A truncated form of human pol η (residues 1–511) tagged with His6 at its C-terminal was expressed in E. coli cells and purified as described by Kusumoto et al.. A recombinant mouse pol ι tagged with His6 at its C-terminal was expressed and purified by Ni–NTA column chromatography. A truncated form of pol κ (residues 1–560) with 6× His-tags attached at the C-terminus was overexpressed in E. coli and purified as described by Ohashi et al.. Recombinant human His-pol λ was overexpressed and purified according to a method described by Shimazaki et al.. Recombinant human His-pol μ was overexpressed in E. coli BL21 and purified using Glutathione Sepharose 4B (GE Healthcare Bio-Science Corp., Piscataway, NJ, USA) column chromatography according to the method for pol λ preparation by Shimazaki et al.. Pol α from a higher plant, cauliflower, was purified from the inflorescence structure according to the methods outlined by Sakaguchi et al.. Recombinant rice (Oryza sativa L. cv. Nipponbare) pol λ tagged with His6 at the C-terminus was expressed in E. coli and purified as described by Uchiyama et al.. Calf TdT, Taq pol, T4 pol, T7 RNA polymerase, and T4 polynucleotide kinase were purchased from Takara Bio Inc. (Kyoto, Japan). The Klenow fragment of pol I from E. coli was purchased from Worthington Biochemical Corp. (Freehold, NJ, USA). Bovine pancreas deoxyribonuclease I was obtained from Stratagene Cloning Systems (La Jolla, CA, USA).
(§2) The reaction mixtures for calf pol α, rat pol β, plant pol α, and prokaryotic pols have been described previously, [35]; those for pol γ as well as pols δ and ε were previously described by Umeda et al. and Ogawa et al., respectively. Those for pols η, ι, and κ were the same as for pol α, and those for pols λ and μ were the same as for pol β. For the pol reactions, poly(dA)/oligo(dT)18 (A/T, 2/1) and dTTP were used as the DNA template-primer substrate and nucleotide (dNTP; 2′-deoxynucleoside-5′-triphosphate) substrate, respectively. For the TdT reactions, oligo(dT)18 (3′-OH) and dTTP were used as the DNA primer substrate and nucleotide substrate, respectively.
(§3) The chemically synthesized 5-O-acyl plumbagins (2a–j) were dissolved in distilled dimethyl sulfoxide (DMSO) to various concentrations and sonicated for 30 s. Subsequently, 4 µL aliquots were mixed with 16 µL of each enzyme (0.05 units) in 50 mM Tris-HCl at pH 7.5, containing 1 mM dithiothreitol, 50% glycerol (by vol), and 0.1 mM ethylenediaminetetraacetic acid and held at 0°C for 10 min. These inhibitor-enzyme mixtures in 8 µL volumes were next added to 16 µL of enzyme standard reaction mixture and incubated at 37°C for 60 min, except for Taq pol, which was incubated at 74°C for 60 min. Activity without inhibitor was considered 100%, and the relative activity was determined for each inhibitor concentration. One unit of pol activity was defined as the amount of each enzyme that catalyzed the incorporation of 1 nmol dTTP into synthetic DNA template primers in 60 min, at 37°C, and under standard reaction conditions, [35].

Human pol κ = molecular target: T2, Human pol κ (Homo sapiens, UniProt Q9UBT6); experiment: DNA polymerase activity inhibition; type: biochemical; conditions: 10 µM compound; Fig. 4
T2 construct: A truncated form of pol κ (residues 1–560) with 6× His-tags attached at the C-terminus; 6× His (C); made in house; host or cells: E. coli
T2 sequence (Q9UBT6 1-560): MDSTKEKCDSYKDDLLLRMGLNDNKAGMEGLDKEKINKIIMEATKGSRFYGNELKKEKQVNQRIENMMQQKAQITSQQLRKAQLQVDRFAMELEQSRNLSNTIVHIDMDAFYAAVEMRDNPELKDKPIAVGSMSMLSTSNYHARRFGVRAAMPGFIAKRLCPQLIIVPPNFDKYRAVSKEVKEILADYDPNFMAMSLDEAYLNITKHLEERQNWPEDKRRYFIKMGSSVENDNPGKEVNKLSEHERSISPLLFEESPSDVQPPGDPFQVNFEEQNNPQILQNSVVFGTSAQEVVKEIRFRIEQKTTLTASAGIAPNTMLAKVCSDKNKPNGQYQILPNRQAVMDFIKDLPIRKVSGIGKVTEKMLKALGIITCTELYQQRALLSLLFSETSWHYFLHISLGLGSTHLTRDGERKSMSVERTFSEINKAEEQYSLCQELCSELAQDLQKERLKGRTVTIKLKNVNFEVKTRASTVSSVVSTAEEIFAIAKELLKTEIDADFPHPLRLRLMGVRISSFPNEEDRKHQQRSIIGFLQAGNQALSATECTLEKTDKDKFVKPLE
From the text: as §1, §2, §3

HT-29 solid tumors = experiment: In vivo anti-tumor assay; set-up: species or system nude mice; conditions: at 40 days; 5 mg/kg subcutaneously in PBS, versus PBS control; n = 6
From the text: Male BALB/c nu/nu mice at 5 week of age (18 g) were purchased from Japan SLC, Inc. (Shizuoka, Japan). Mice receiving standard laboratory chow and water ad libitum were acclimatized for 1 week before inoculation with cancer cells. For in vivo experiments, human colon HT-29 cells (1×10^7 cells/mouse) were subcutaneously injected into nude mice. Mice bearing solid tumors that had grown to approximately 100 mm^3 in volume (tumor volume = length×width×height) at 12 days after implantation were used for the assessment of anti-tumor effects. They were divided randomly into five groups (n = 6/group). One of the five groups was a control group injected with 0.1 mL of phosphate buffered saline (PBS) alone, and other groups were injected with vitamin K3 (3), juglone (4), C18:1-acyl juglone (5f), and C18:1-acyl plumbagin (2f) dissolved in PBS at a dose of 5 mg/kg. The above administrations all took place between days 12–39 subsequent to implantation. All mice were injected subcutaneously 14 times at […] with the compound and PBS alone (control). Tumor growth was measured at 1-day intervals for 40 days after implantation. At the end of the in vivo anti-tumor assay, some mice treated with the test compounds and PBS were independently examined to observe major organs such as lung, heart, spleen, stomach, liver, pancreas, kidney, intestine, and brain.

calf thymus dsDNA = experiment: Thermal transition of dsDNA; type: binding; conditions: 15 µM compound (positive control); 6 µg/mL DNA, 0.1 M Na-phosphate buffer pH 7.0
Method: Thermal transition profiles of dsDNA to single-stranded DNA with or without test compound were obtained with a spectrophotometer (UV-2500; Shimadzu Corp., Kyoto, Japan) equipped with a thermoelectric cell holder according to previous methods. Calf thymus DNA (6 µg/mL) was dissolved in 0.1 M sodium phosphate buffer (pH 7.0) containing 1% DMSO. The solution temperature was equilibrated to 75°C for 10 min, and then increased by 1°C at 2-min intervals for each measurement point. Any change in the absorbance (260 nm) of the compound itself at each temperature point was automatically subtracted from that of DNA plus the compound in the spectrophotometer.

Calf pol α = molecular target: T3, Calf pol α (Bos taurus, UniProt A0AAA9TD94); experiment: DNA polymerase activity inhibition; type: biochemical; conditions: 10 µM compound; Fig. 4
T3 construct: from tissue; host or cells: calf thymus
From the text: as §1, §2, §3

[1] = Stability under basic conditions (Triton B, UV-vis); type: physicochemical; conditions: 1 equivalent Triton B in 1,4-dioxane and MeOH, 1.1×10^−3 M, 25°C
Method: A 2.2×10^−2 M solution of Triton B in MeOH was added to a 2.2×10^−2 M solution of each sample in 1,4-dioxane. Then, the mixture was diluted with 1,4-dioxane to a concentration of 1.1×10^−3 M. Then, the stability of each compound was monitored by UV-vis spectroscopy. UV-vis spectra were measured at 25°C on a UV-vis spectrophotometer (JASCO V-650, Tokyo, Japan). For comparison, UV-vis spectra of 1.1×10^−3 M solution of C18:1-acyl plumbagin (2f), and C18:1-acyl juglone (5f) in 1,4-dioxane and MeOH (19/1, v/v) were measured.

HCT116 (colon cancer) = experiment: Cancer cell viability, MTT assay; type: cell-based, human; conditions: 48 h, MTT; for suppression of cell proliferation: Fig. 5
Method: The following human cancer cell lines were obtained from the American Type Culture Collection (Manassas, VA, USA): lung (A549), prostate (DU145 and PC3), colon (HCT116 and HT-29), cervix (HeLa), hepatocellular liver (HepG2), breast (MCF-7), and pancreatic cancer (PANC-1). These cells were cultured in RPMI 1640 medium supplemented with 10% fetal bovine serum, penicillin (100 units/mL), streptomycin (100 µg/mL), and 1.6 mg/mL NaHCO3 at 37°C in a humid atmosphere of 5% CO2/95% air. For the cell viability assay, cells were seeded at 1×10^3 cells/well in a 96-well microplate with various concentrations of the test compounds, and incubated for 48 h. MTT (3-(4,5-dimethylthiazol-2-yl)-2,5-diphenyl tetrazolium bromide) solution was added to a final concentration 0.6 mg/mL in Milli-Q purified water for 2 h, after which time the medium was discarded and the cells lysed in DMSO. A540 was then measured in a microplate reader (Model 680, Bio-Rad Laboratories, Hercules, CA, USA).

T3 sequence (A0AAA9TD94 1-1441): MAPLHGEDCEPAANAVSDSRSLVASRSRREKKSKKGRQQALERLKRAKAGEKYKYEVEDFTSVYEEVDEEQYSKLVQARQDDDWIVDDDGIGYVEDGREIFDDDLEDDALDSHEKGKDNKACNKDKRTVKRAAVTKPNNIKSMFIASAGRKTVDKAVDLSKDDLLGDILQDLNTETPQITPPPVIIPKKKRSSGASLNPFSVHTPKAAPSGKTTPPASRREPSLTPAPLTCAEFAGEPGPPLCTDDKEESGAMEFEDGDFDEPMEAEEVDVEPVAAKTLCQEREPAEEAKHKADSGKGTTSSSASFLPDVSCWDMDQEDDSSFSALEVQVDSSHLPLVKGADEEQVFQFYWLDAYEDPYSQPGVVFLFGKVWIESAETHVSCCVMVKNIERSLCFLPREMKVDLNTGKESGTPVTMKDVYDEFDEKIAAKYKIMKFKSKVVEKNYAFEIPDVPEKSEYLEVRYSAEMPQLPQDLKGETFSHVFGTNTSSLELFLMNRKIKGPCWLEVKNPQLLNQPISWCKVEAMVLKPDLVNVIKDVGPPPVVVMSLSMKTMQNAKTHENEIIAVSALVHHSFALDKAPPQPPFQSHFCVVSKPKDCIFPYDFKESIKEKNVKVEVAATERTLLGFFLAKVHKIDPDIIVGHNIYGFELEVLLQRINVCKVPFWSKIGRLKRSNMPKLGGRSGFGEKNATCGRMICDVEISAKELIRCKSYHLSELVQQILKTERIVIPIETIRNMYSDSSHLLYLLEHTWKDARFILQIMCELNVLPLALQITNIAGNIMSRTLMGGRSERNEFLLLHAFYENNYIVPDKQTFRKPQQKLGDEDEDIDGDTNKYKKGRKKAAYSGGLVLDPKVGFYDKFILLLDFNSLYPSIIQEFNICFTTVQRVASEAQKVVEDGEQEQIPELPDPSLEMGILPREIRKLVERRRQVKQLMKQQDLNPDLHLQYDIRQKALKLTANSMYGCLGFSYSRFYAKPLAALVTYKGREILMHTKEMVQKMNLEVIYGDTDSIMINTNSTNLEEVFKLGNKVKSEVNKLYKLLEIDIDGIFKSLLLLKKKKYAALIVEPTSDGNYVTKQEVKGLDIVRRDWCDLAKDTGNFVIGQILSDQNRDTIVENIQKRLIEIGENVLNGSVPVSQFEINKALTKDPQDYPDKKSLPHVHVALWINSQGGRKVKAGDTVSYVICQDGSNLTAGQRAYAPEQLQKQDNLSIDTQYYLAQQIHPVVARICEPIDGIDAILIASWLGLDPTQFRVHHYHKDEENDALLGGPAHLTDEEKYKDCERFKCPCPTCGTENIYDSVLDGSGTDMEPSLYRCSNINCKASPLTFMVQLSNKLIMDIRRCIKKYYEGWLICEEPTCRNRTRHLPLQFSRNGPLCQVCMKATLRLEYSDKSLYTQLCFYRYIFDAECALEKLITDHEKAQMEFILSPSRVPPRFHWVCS

C[C@@]1(CO)[C@H](O)CC[C@@]2(C)[C@H]1CC[C@H]1C[C@@H]3C[C@@]12CC[C@]3(O)CO [aphidicolin]
IC50 (pol ε): 16 µM | IC50 (pol δ): 13 µM | IC50 (pol α): 20 µM

CC/C=C\C/C=C\C/C=C\C/C=C\C/C=C\C/C=C\CCC(=O)Oc1cccc2c1C(=O)C=C(C)C2=O [2j, 5-O-docosahexaenoyloxy-2-methyl-1,4-naphthoquinone]
inhibition of pol λ relative activity (in words) (Human pol λ): strongest inhibitor | inhibition of pol κ relative activity (in words) (Human pol κ): strongest inhibitor

O=C1C=CC(=O)c2c(O)cccc21 [compound 4, 5-hydroxy-1,4-naphthoquinone]
decreased rates of tumor volume (HT-29 solid tumors): 9.2%

CC(=O)Oc1cccc2c1C(=O)C=C(C)C2=O [2a, 5-O-acetoxy-2-methyl-1,4-naphthoquinone]
melting point: 118 to 124 °C | inhibition of pol λ relative activity (in words) (Human pol λ): hardly inhibited | inhibition of pol κ relative activity (in words) (Human pol κ): hardly inhibited

CC[n+]1c(-c2ccccc2)c2cc(N)ccc2c2ccc(N)cc21 [EtBr, ethidium bromide]
thermal transition (Tm) of dsDNA from 75 to 90°C (calf thymus dsDNA): an obvious thermal transition was observed

CCCCCCCCCCCCCCCCCC(=O)Oc1cccc2c1C(=O)C=C(C)C2=O [2e, 5-O-octadecanoyloxy-2-methyl-1,4-naphthoquinone]
melting point: 67 to 70 °C | inhibition of pol α relative activity (in words) (Calf pol α): did not inhibit

CCCCCCCC/C=C\CCCCCCCC(=O)Oc1cccc2c1C(=O)C=CC2=O [5f, reference compound]
stability under basic conditions (UV spectra) [1]: readily decomposes under basic conditions | decreased rates of tumor volume (HT-29 solid tumors): 10.3%

CC1=CC(=O)c2ccccc2C1=O [compound 3, 2-methyl-1,4-naphthoquinone]
decreased rates of tumor volume (HT-29 solid tumors): 7.0%

CC1=CC(=O)c2c(O)cccc2C1=O [compound 1, 5-hydroxy-2-methyl-1,4-naphthoquinone, reference compound]
suppression of cell proliferation (HCT116 (colon cancer); 10 µM): did not | suppression of cell proliferation (HCT116 (colon cancer); 100 µM): approximately 50%

CCCCC/C=C\C/C=C\CCCCCCCC(=O)Oc1cccc2c1C(=O)C=C(C)C2=O [2g, 5-O-linoleoyloxy-2-methyl-1,4-naphthoquinone]
cell proliferation rate (HCT116 (colon cancer); 10 µM, control = 100%): < 60%
